Values quoted from earlier work as cited in article PMC3629230, “Permeability Enhancers Dramatically Increase Zanamivir Absolute Bioavailability in Rats: Implications for an Orally Bioavailable Influenza Treatment” (PLoS ONE, 2013).

Tests used:
[1] = test system: flu strains; settings: cited from earlier work
[2] = test system: seasonal H1N1; parameters: method as in earlier work; settings: 2009 tests; cited from earlier work
[3] = test system: pandemic flu strains; parameters: method as in earlier work; settings: 2009 tests; cited from earlier work

SMILES: CC(=O)N[C@H]1[C@H]([C@H](O)[C@H](O)CO)OC(C(=O)O)=C[C@@H]1N=C(N)N [Zanamivir, zanamivir]
- Resistance [1]: has not been observed

SMILES: CCOC(=O)C1=C[C@@H](OC(CC)CC)[C@H](NC(C)=O)[C@@H](N)C1 [oseltamivir]
- Strains resistant [2]: 99.6%
- Strains resistant [3]: 0.5%
